Data as given in patent publication US9326506B2, “Preparation method, agricultural composition and applications of natural brassinolide analogs” (CHENGDU NEWSUN CROPSCIENCE CO., LTD, priority 2012, dated 2016).

System: rice
Experiment: Low temperature assay on rice seedlings
Assay type: in vivo
Procedure: According to a low temperature assay, we measured parameters including plant height, number of leaf, area of leaf, number of tiller, weight of root at low temperature to completely determine effects of the natural brassinolide analogues on the resistance to low temperature of a plant.
The natural brassinolide analogues, BR1, BR2, BR3, BR4, BR5 and BR6, used herein, were those prepared by the method of Example 1. Respectively the analogues were dissolved into 95% (V/V) ethanol solution, and then diluted with pure water to 1 mg/L, 0.1 mg/L, 0.01 mg/L, 0.001 mg/L and 0.0001 mg/L. In addition, pure water was used as a control.
After rice seeds were disinfected by using 5% sodium hypochlorite solution treatment, they were rinsed with distilled water until their pH>7, placed into a petri dish in a dark incubator, and cultured by using water at 30° C.±2° C. for 9 days. Then respectively the nine-day-old etiolated seedlings of rice were immersed in the above solutions containing different concentrations of the natural brassinolide analogues or pure water, and cultured at the temperature of 1° C., 2° C., 3° C., 4° C. and 5° C. for 24 hr. The parameters including plant height, area of leaf and weight of root after 3, 6, 9 and 12 days and number of leaf and number of tiller after 12 days were measured.

## CC(C)[C@H](C)[C@@H](O)[C@H](O)[C@@H](C)[C@H]1CCC2C3COC(=O)C4C[C@H](O)[C@H](O)C[C@]4(C)C3CC[C@@]21C (stereo partly shown) [BR1]
0.0001 mg/l, 1 °C, 3 days
  Area of leaf: 10 cm^2
  Height: 7.1 cm
  Weight of root: 2.8 g
0.0001 mg/l, 1 °C, 6 days
  Area of leaf: 11.2 cm^2
  Height: 7.2 cm
  Weight of root: 3.1 g
0.0001 mg/l, 1 °C, 9 days
  Area of leaf: 12.4 cm^2
  Height: 7.3 cm
  Weight of root: 3.4 g
0.0001 mg/l, 1 °C, 12 days
  Area of leaf: 13 cm^2
  Height: 7.4 cm
  Number of leaf: 3
  Number of tiller: 3
  Weight of root: 3.9 g
0.0001 mg/l, 2 °C, 3 days
  Area of leaf: 10.2 cm^2
  Height: 7.1 cm
  Weight of root: 2.8 g
0.0001 mg/l, 2 °C, 6 days
  Area of leaf: 11.7 cm^2
  Height: 7.2 cm
  Weight of root: 3.0 g
0.0001 mg/l, 2 °C, 9 days
  Area of leaf: 12.6 cm^2
  Height: 7.3 cm
  Weight of root: 3.2 g
0.0001 mg/l, 2 °C, 12 days
  Area of leaf: 13 cm^2
  Height: 7.5 cm
  Number of leaf: 3
  Number of tiller: 3
  Weight of root: 3.9 g
0.0001 mg/l, 3 °C, 3 days
  Area of leaf: 10.4 cm^2
  Height: 7.1 cm
  Weight of root: 2.5 g
0.0001 mg/l, 3 °C, 6 days
  Area of leaf: 12 cm^2
  Height: 7.2 cm
  Weight of root: 2.6 g
0.0001 mg/l, 3 °C, 9 days
  Area of leaf: 12.6 cm^2
  Height: 7.5 cm
  Weight of root: 2.9 g
0.0001 mg/l, 3 °C, 12 days
  Area of leaf: 13.2 cm^2
  Height: 7.6 cm
  Number of leaf: 3
  Number of tiller: 2
  Weight of root: 2.9 g
0.0001 mg/l, 4 °C, 3 days
  Area of leaf: 10.6 cm^2
  Height: 7.1 cm
  Weight of root: 2.5 g
0.0001 mg/l, 4 °C, 6 days
  Area of leaf: 12.2 cm^2
  Height: 7.3 cm
  Weight of root: 2.6 g
0.0001 mg/l, 4 °C, 9 days
  Area of leaf: 13 cm^2
  Height: 7.5 cm
  Weight of root: 2.9 g
0.0001 mg/l, 4 °C, 12 days
  Area of leaf: 13.4 cm^2
  Height: 7.7 cm
  Number of leaf: 3
  Number of tiller: 2
  Weight of root: 2.9 g
0.0001 mg/l, 5 °C, 3 days
  Area of leaf: 10.6 cm^2
  Height: 7.2 cm
  Weight of root: 2.6 g
0.0001 mg/l, 5 °C, 6 days
  Area of leaf: 12.4 cm^2
  Height: 7.4 cm
  Weight of root: 2.8 g
0.0001 mg/l, 5 °C, 9 days
  Area of leaf: 13.6 cm^2
  Height: 7.5 cm
  Weight of root: 2.9 g
0.0001 mg/l, 5 °C, 12 days
  Area of leaf: 14 cm^2
  Height: 7.8 cm
  Number of leaf: 3
  Number of tiller: 2
  Weight of root: 3.0 g
0.001 mg/l, 1 °C, 3 days
  Area of leaf: 10.1 cm^2
  Height: 6.9 cm
  Weight of root: 2.8 g
0.001 mg/l, 1 °C, 6 days
  Area of leaf: 11.3 cm^2
  Height: 7.1 cm
  Weight of root: 3.1 g
0.001 mg/l, 1 °C, 9 days
  Area of leaf: 12.6 cm^2
  Height: 7.3 cm
  Weight of root: 3.4 g
0.001 mg/l, 1 °C, 12 days
  Area of leaf: 13 cm^2
  Height: 7.3 cm
  Number of leaf: 3
  Number of tiller: 3
  Weight of root: 3.9 g
0.001 mg/l, 2 °C, 3 days
  Area of leaf: 10.3 cm^2
  Height: 6.9 cm
  Weight of root: 2.8 g
0.001 mg/l, 2 °C, 6 days
  Area of leaf: 11.8 cm^2
  Height: 7.1 cm
  Weight of root: 3.0 g
0.001 mg/l, 2 °C, 9 days
  Area of leaf: 12.6 cm^2
  Height: 7.2 cm
  Weight of root: 3.2 g
0.001 mg/l, 2 °C, 12 days
  Area of leaf: 13.1 cm^2
  Height: 7.3 cm
  Number of leaf: 3
  Number of tiller: 3
  Weight of root: 3.9 g
0.001 mg/l, 3 °C, 3 days
  Area of leaf: 10.4 cm^2
  Height: 7 cm
  Weight of root: 2.5 g
0.001 mg/l, 3 °C, 6 days
  Area of leaf: 12 cm^2
  Height: 7.1 cm
  Weight of root: 2.6 g
0.001 mg/l, 3 °C, 9 days
  Area of leaf: 12.6 cm^2
  Height: 7.4 cm
  Weight of root: 2.9 g
0.001 mg/l, 3 °C, 12 days
  Area of leaf: 13.2 cm^2
  Height: 7.3 cm
  Number of leaf: 3
  Number of tiller: 2
  Weight of root: 2.9 g
0.001 mg/l, 4 °C, 3 days
  Area of leaf: 10.6 cm^2
  Height: 7.1 cm
  Weight of root: 2.5 g
0.001 mg/l, 4 °C, 6 days
  Area of leaf: 12.4 cm^2
  Height: 7.3 cm
  Weight of root: 2.6 g
0.001 mg/l, 4 °C, 9 days
  Area of leaf: 13.1 cm^2
  Height: 7.5 cm
  Weight of root: 2.9 g
0.001 mg/l, 4 °C, 12 days
  Area of leaf: 13.5 cm^2
  Height: 7.7 cm
  Number of leaf: 3
  Number of tiller: 2
  Weight of root: 2.9 g
0.001 mg/l, 5 °C, 3 days
  Area of leaf: 10.7 cm^2
  Height: 7.5 cm
  Weight of root: 2.8 g
0.001 mg/l, 5 °C, 6 days
  Area of leaf: 14.6 cm^2
  Height: 7.7 cm
  Weight of root: 2.9 g
0.001 mg/l, 5 °C, 9 days
  Area of leaf: 16.4 cm^2
  Height: 7.9 cm
  Weight of root: 3.0 g
0.001 mg/l, 5 °C, 12 days
  Area of leaf: 17 cm^2
  Height: 8.2 cm
  Number of leaf: 3
  Number of tiller: 3
  Weight of root: 3.7 g
0.01 mg/l, 1 °C, 3 days
  Area of leaf: 10.1 cm^2
  Height: 6.9 cm
  Weight of root: 2.8 g
0.01 mg/l, 1 °C, 6 days
  Area of leaf: 11.9 cm^2
  Height: 7.2 cm
  Weight of root: 3.0 g
0.01 mg/l, 1 °C, 9 days
  Area of leaf: 12.9 cm^2
  Height: 7.3 cm
  Weight of root: 3.4 g
0.01 mg/l, 1 °C, 12 days
  Area of leaf: 13.6 cm^2
  Height: 7.4 cm
  Number of leaf: 3
  Number of tiller: 3
  Weight of root: 3.9 g
0.01 mg/l, 2 °C, 3 days
  Area of leaf: 10.3 cm^2
  Height: 6.9 cm
  Weight of root: 2.8 g
0.01 mg/l, 2 °C, 6 days
  Area of leaf: 11.8 cm^2
  Height: 7.2 cm
  Weight of root: 3.0 g
0.01 mg/l, 2 °C, 9 days
  Area of leaf: 12.8 cm^2
  Height: 7.3 cm
  Weight of root: 3.1 g
0.01 mg/l, 2 °C, 12 days
  Area of leaf: 13.4 cm^2
  Height: 7.5 cm
  Number of leaf: 3
  Number of tiller: 3
  Weight of root: 3.2 g
0.01 mg/l, 3 °C, 3 days
  Area of leaf: 10.4 cm^2
  Height: 7 cm
  Weight of root: 2.5 g
0.01 mg/l, 3 °C, 6 days
  Area of leaf: 12 cm^2
  Height: 7.2 cm
  Weight of root: 2.6 g
0.01 mg/l, 3 °C, 9 days
  Area of leaf: 12.6 cm^2
